Measured values from patent US20240116857A1 (St. Louis University, priority 2022, published 2024).
Converted amounts (≈) assume the structure as drawn. Like-named read-outs stand apart in the source and are kept apart here.

Tests used:
[1] = test system: Pseudomonas aeruginosa PAO1 Δ6-Pore; assay: MIC, permeabilized bacteria; format: cell-based
[2] = test system: Pseudomonas aeruginosa 462; assay: MIC, 2-fold broth dilution; format: cell-based; details: WT, clinical non MDR
[3] = test system: Pseudomonas aeruginosa BAA 2108; assay: MIC, 2-fold broth dilution; format: cell-based; details: BAA2108
[4] = test system: Burkholderia thailandensis Δ2-Pore; assay: microbe, parasite or virus in culture; format: cell-based
[5] = test system: Burkholderia thailandensis; assay: microbe, parasite or virus in culture; format: cell-based
[6] = test system: Klebsiella pneumoniae ATCC13883; assay: MIC, 2-fold broth dilution; format: cell-based; details: WT
Procedure: (§1) Luria-Bertani (LB) broth (10 g of Bacto tryptone, 5 g of yeast extract, and 5 g of NaCl per liter; pH 7.0) was used for bacterial growth. The bacterial strains were inoculated overnight at 37° C. Cells were 1:100 subcultured into a fresh 30-ml volume of LB medium and grown at 37° C. to an optical density at 600 nm (OD600) of 0.3. When appropriate, the cells cultures were supplemented with 0.1% L-arabinose or 0.1 mM isopropyl β-d-1-thiogalactopyranoside (IPTG), to induce expression of the “Pore” protein. The cells were cultured up to OD600 of 1.0. The test compounds were dissolved in dimethylsulfoxide (DMSO) to make the final 10 mM stock solution. The minimal inhibitory concentrations (MIC) were determined using the 2-fold broth dilution method (1). The OD600 was measured using a Tecan Spark 10 M microplate reader.

[7] = test system: Klebsiella oxytoca ATCC700324; assay: MIC, 2-fold broth dilution; format: cell-based; details: WT
Procedure: as §1

[8] = test system: Acinetobacter baumannii ATCC17978; assay: MIC, 2-fold broth dilution; format: cell-based; details: WT
Procedure: as §1

[9] = test system: Pseudomonas aeruginosa PAO1; assay: MIC, 2-fold broth dilution; format: cell-based; details: WT
Procedure: as §1

[10] = test system: Klebsiella aerogenes ATCC13048; assay: MIC, 2-fold broth dilution; format: cell-based; details: WT
Procedure: as §1

[11] = test system: Enterobacter cloacae ATCC13047; assay: MIC, 2-fold broth dilution; format: cell-based; details: WT
Procedure: as §1

[12] = test system: Pseudomonas aeruginosa MP 2019; assay: MIC, 2-fold broth dilution; format: cell-based; details: MP2019, WT, MDR
[13] = Cytotoxicity assay (CellTiter AQueous One Solution, MTS); format: cell-based; details: human, HEK293 cells, 24 h incubation
Procedure: Cytotoxicity of the compounds was evaluated using the CellTiter AQueous One Solution Cell Proliferation Assay (MTS; Promega) as previously described (2). HEK293 cells were incubated with a 2-fold serially diluted compounds for 24 h at 37° C. with 5% CO2, followed by addition of 20 μL of CellTiter AQueous and further incubated for 4 h at 37° C. The absorbance at 490 nm was recorded using a Tecan Spark 10 M plate reader. All measurements were done in three replicas. The growth curves were then fitted to a sigmoidal equation to determine the cytotoxicity concentration CC50.

Yersinia pestis KIM6+ = assay: microbe, parasite or virus in culture; format: cell-based
[14] = test system: Klebsiella oxytoca ATCC700324 Pore; assay: MIC, permeabilized bacteria; format: cell-based
[15] = test system: Acinetobacter baumannii Ab5075 ΔIJK; assay: MIC, permeabilized bacteria; format: cell-based
[16] = test system: Pseudomonas aeruginosa 515; assay: MIC, 2-fold broth dilution; format: cell-based; details: WT, clinical non MDR
[17] = test system: Staphylococcus aureus ATCC 25923; assay: MIC, 2-fold broth dilution; format: cell-based; details: ATCC25923, non MDR
E. coli BW25113 = assay: MIC, 2-fold broth dilution, E. coli BW25113; format: cell-based, Escherichia coli; details: Escherichia coli
[18] = test system: Pseudomonas aeruginosa 273; assay: MIC, 2-fold broth dilution; format: cell-based; details: WT, clinical non MDR
[19] = test system: Acinetobacter baumannii Ab5075; assay: MIC, 2-fold broth dilution; format: cell-based
[20] = test system: Acinetobacter baumannii ATCC17978 Δ3-Pore; assay: MIC, permeabilized bacteria; format: cell-based
[21] = test system: Acinetobacter baumannii AYE ΔB ΔIJK; assay: MIC, permeabilized bacteria; format: cell-based
[22] = test system: Staphylococcus aureus ATCC 700787; assay: MIC, 2-fold broth dilution; format: cell-based; details: ATCC700787
[23] = test system: Acinetobacter baumannii AYE; assay: MIC, 2-fold broth dilution; format: cell-based
[24] = E. coli BW25113, asterisk in column 1-10, read-out: MIC, μM 1-10
[25] = E. coli BW25113, asterisk in column 10-50, read-out: MIC, μM 10-50
[26] = E. coli BW25113, asterisk in column >50, read-out: MIC, μM >50

C[n+]1ccc(Nc2ccc(NC(=O)c3ccc(-c4ccc(C(=O)Nc5ccc(Nc6cc[n+](C)cc6)cc5)cc4)cc3)cc2)cc1 [Example 17, 4,4′-(((([1,1′-biphenyl]-4,4′-dicarbonyl)bis(azanediyl))bis(4,1-phenylene))bis(azanediyl))bis(1-methylpyridin-1-ium)]
MIC [1]: 0.2 µM
MIC [2]: 12.5 µM
MIC [3]: > 100 µM
MIC [4]: 0.8 µM
MIC [5]: > 100 µM
MIC [6]: 3.1 µM
MIC [7]: > 100 µM
MIC [8]: 6.2 µM
MIC [9]: 6.2 µM
MIC [10]: 6.2 µM
MIC [11]: 50 µM
MIC [12]: > 100 µM
CC50 at 24 h [13]: > 1000 µM
MIC (Yersinia pestis KIM6+): 100 µM
MIC [14]: > 100 µM
MIC [15]: 6.2 µM
MIC [16]: > 100 µM
MIC [17]: 0.8 µM
MIC (E. coli BW25113; E. coli BW25113, asterisk in column <1, read-out: MIC, μM <1): < 1 µM
MIC [18]: 12.5 µM
MIC [19]: 12.5 µM
MIC [20]: 0.8 µM
MIC [21]: 0.2 µM
MIC [22]: 0.4 µM
MIC [23]: > 100 µM

C[n+]1ccc(Nc2ccc(NC(=O)c3ccc(C(=O)Nc4ccc(Nc5cc[n+](C)cc5)cc4)c([N+](=O)[O-])c3)cc2)cc1 [Example 25, 4,4′-((((2-nitroterephthaloyl)bis(azanediyl))bis(4,1-phenylene))bis(azanediyl))bis(1-methylpyridin-1-ium)]
CC50 at 24 h [13]: 350 µM
MIC (E. coli BW25113; [24]): 1 to 10 µM

C[n+]1ccc(Nc2ccc(NC(=O)c3ccc(C(=O)Nc4ccc(Nc5cc[n+](C)cc5)cc4)c(N)c3)cc2)cc1 [Example 30, 4,4′-((((2-aminoterephthaloyl)bis(azanediyl))bis(4,1-phenylene))bis(azanediyl))bis(1-methylpyridin-1-ium)]
CC50 at 24 h [13]: 480 µM
MIC (E. coli BW25113; [24]): 1 to 10 µM

COc1cc(NC(=O)c2ccc(-c3ccc(C(=O)Nc4ccc([N+](C)(C)C)c(OC)c4)cc3)cc2)ccc1[N+](C)(C)C [Example 35, 4,4′-(([1,1′-biphenyl]-4,4′-dicarbonyl)bis(azanediyl))bis(2-methoxy-N,N,N-trimethylbenzenaminium)]
CC50 at 24 h [13]: 650 µM
MIC (E. coli BW25113; [25]): 10 to 50 µM

C[N+](C)(C)c1ccc(NC(=O)c2ccc(-c3ccc(C(=O)Nc4ccc([N+](C)(C)C)c(Cl)c4)cc3)cc2)cc1Cl [Example 39, 4,4′-(([1,1′-biphenyl]-4,4′-dicarbonyl)bis(azanediyl))bis(2-chloro-N,N,N-trimethylbenzenaminium)]
CC50 at 24 h [13]: 330 µM
MIC (E. coli BW25113; [24]): 1 to 10 µM

C[n+]1ccc(Nc2ccc(NC(=O)c3ccc(C(=O)Nc4ccc(Nc5cc[n+](C)cc5)cc4)c(C(F)(F)F)c3)cc2)cc1 [Example 47]
CC50 at 24 h [13]: 350 µM
MIC (E. coli BW25113; [25]): 10 to 50 µM

C[N+](C)(C)c1ccc(NC(=O)c2ccc(-c3ccc(C(=O)Nc4ccc([N+](C)(C)CCCCc5cn(CCOCCOCCOCCNC(=O)CCCC[C@@H]6SC[C@@H]7NC(=O)N[C@@H]76)nn5)c(F)c4)cc3)cc2)cc1F [Example 132]
MIC (E. coli BW25113; [26]): > 50 µM

C[N+](C)(C)c1ccc(NC(=O)c2ccc(-c3ccc(C(=O)Nc4ccc([N+](C)(C)CCCc5cn(CCOCCOCCOCCNC(=O)CCCC[C@@H]6SC[C@@H]7NC(=O)N[C@@H]76)nn5)c(F)c4)cc3)cc2)cc1F [Example 133]
MIC (E. coli BW25113; [26]): > 50 µM

C[N+](C)(C)c1ccc(NC(=O)c2ccc(-c3ccc(C(=O)Nc4ccc([N+](C)(C)Cc5cn(CCOCCOCCOCCNC(=O)CCCC[C@@H]6SC[C@@H]7NC(=O)N[C@@H]76)nn5)c(F)c4)cc3)cc2)cc1F [Example 134]
MIC (E. coli BW25113; [26]): > 50 µM

C[N+](C)(C)c1ccc(NC(=O)c2ccc(-c3ccc(C(=O)Nc4ccc([N+](C)(C)C)c(OCCCCCCCCc5cn(CCOCCOCCONC(=O)CCCC[C@@H]6SC[C@@H]7NC(=O)N[C@@H]76)nn5)c4)cc3)cc2)cc1F [Example 135]
MIC (E. coli BW25113; [26]): > 50 µM

C[N+](C)(C)c1ccc(NC(=O)c2ccc(-c3ccc(C(=O)Nc4ccc([N+](C)(C)C)c(OCCCCc5cn(CCOCCOCCOCCNC(=O)CCCC[C@@H]6SC[C@@H]7NC(=O)N[C@@H]76)nn5)c4)cc3)cc2)cc1F [Example 136]
MIC (E. coli BW25113; [26]): > 50 µM

C[N+](C)(C)c1ccc(NC(=O)c2ccc(-c3ccc(C(=O)Nc4ccc([N+](C)(C)C)c(OCCCc5cn(CCOCCOCCOCCNC(=O)CCCC[C@@H]6SC[C@@H]7NC(=O)N[C@@H]76)nn5)c4)cc3)cc2)cc1F [Example 137]
MIC (E. coli BW25113; [26]): > 50 µM

C[N+](C)(C)c1ccc(NC(=O)c2ccc(-c3ccc(C(=O)Nc4ccc([N+](C)(C)C)c(OCCc5cn(CCOCCOCCOCCNC(=O)CCCC[C@@H]6SC[C@@H]7NC(=O)N[C@@H]76)nn5)c4)cc3)cc2)cc1F [Example 138]
MIC (E. coli BW25113; [26]): > 50 µM

C#CCCN(C)c1ccc(NC(=O)c2ccc(-c3ccc(C(=O)Nc4ccc(N(C)C)c(F)c4)cc3)cc2)cc1F [Example 139]
MIC (E. coli BW25113; [26]): > 50 µM

CN(C)c1ccc(NC(=O)c2ccc(-c3ccc(C(=O)Nc4ccc(N(C)C)c([N+](=O)[O-])c4)cc3)c(S(C)(=O)=O)c2)cc1 [Example 140]
MIC (E. coli BW25113; [26]): > 50 µM

CN(C)c1ccc(NC(=O)c2ccc(-c3ccc(C(=O)Nc4ccc(N(C)C)c([N+](=O)[O-])c4)cc3)cc2)cc1[N+](=O)[O-] [Example 141]
MIC (E. coli BW25113; BW25113, read-out: MIC, μM >50): > 50 µM

CCCCCCCCc1cn(CCOCCOCCOCCNC(=O)CCCC[C@H]2SC[C@H]3NC(=O)N[C@H]32)nn1 [Example 142]
MIC (E. coli BW25113; [24]): 1 to 10 µM (≈ 0.583 to 5.83 µg/mL)

CN(C)c1ccc(NC(=O)c2ccc(-c3ccc(C(=O)Nc4ccc(N5CCCCC5)c(F)c4)cc3)cc2)cc1F [Example 143]
MIC (E. coli BW25113; [24]): 1 to 10 µM (≈ 0.555 to 5.55 µg/mL)

C[N+](C)(C)c1ccc(NC(=O)c2ccc(-c3ccc(C(=O)Nc4ccc([N+]5(C)CCCCC5)cc4)cc3)cc2)cc1 [Example 144]
MIC (E. coli BW25113; [26]): > 50 µM

COc1cc(NC(=O)c2ccc(-c3ccc(C(=O)Nc4ccc([N+]5(C)CCCCC5)cc4)cc3)cc2)ccc1[N+](C)(C)C [Example 145]
MIC (E. coli BW25113; [26]): > 50 µM

C[N+](C)(C)c1ccc(NC(=O)c2ccc(-c3ccc(C(=O)Nc4ccc([N+](C)(C)C)c([N+](=O)[O-])c4)cc3)c(S(C)(=O)=O)c2)cc1 [Example 146]
MIC (E. coli BW25113; [26]): > 50 µM

C[N+](C)(C)c1ccc(NC(=O)c2ccc(-c3ccc(C(=O)Nc4ccc([N+](C)(C)C)c(N)c4)cc3)c(S(C)(=O)=O)c2)cc1 [Example 147]
MIC (E. coli BW25113; [26]): > 50 µM

CN(C)c1ccc(NC(=O)c2ccc(-c3ccc(C(=O)Nc4ccc(N(C)C)c([N+](=O)[O-])c4)cc3C#N)cc2)cc1 [Example 148]
MIC (E. coli BW25113; [26]): > 50 µM

CN(C)c1ccc(NC(=O)c2ccc(-c3ccc(C(=O)Nc4ccc(N(C)C)c(C#N)c4)cc3C#N)cc2)cc1 [Example 149]
MIC (E. coli BW25113; [26]): > 50 µM

C[N+](C)(C)c1ccc(NC(=O)c2ccc(-c3ccc(C(=O)Nc4ccc([N+](C)(C)C)c(C#N)c4)cc3C#N)cc2)cc1 [Example 150]
MIC (E. coli BW25113; [26]): > 50 µM

C[N+](C)(C)c1ccc(NC(=O)c2ccc(-c3ccc(C(=O)Nc4ccc([N+](C)(C)C)c(N)c4)cc3C#N)cc2)cc1 [Example 153]
MIC (E. coli BW25113; [24]): 1 to 10 µM

C[N+](C)(C)c1ccc(NC(=O)c2ccc(-c3ccc(C(=O)Nc4ccc([N+](C)(C)C)c([N+](=O)[O-])c4)cc3C#N)cc2)cc1 [Example 154]
MIC (E. coli BW25113; [26]): > 50 µM
